Experiments:
velvetleaf = experiment: Test A pre-/postemergence greenhouse test; format: in vivo, Abutilon theophrasti; conditions: for Plant response rating, Velvetleaf: 0 to 100 scale where 0 is no effect and 100 is complete control; for Velvetleaf plant response rating: 0 to 100 scale
Outline: (§1)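 Test compounds in non-phytotoxic solvent with surfactant were applied as a preemergence soil spray to seeded loam/sand pots and, concurrently, postemergence to plants at 2–10 cm, one- to two-leaf stage. About ten days in greenhouse, then injury visually rated against untreated controls.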

redroot pigweed = experiment: Test A pre-/postemergence greenhouse test; format: in vivo, Amaranthus retroflexus; conditions: for Plant response rating, Pigweed: 0 to 100 scale where 0 is no effect and 100 is complete control; for Pigweed plant response rating: 0 to 100 scale
Outline: as §1

barnyardgrass [1] = experiment: Test C flooded paddy test; format: in vivo, Echinochloa crus-galli; conditions: Flood
Outline: (§2)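 Greenhouse pots flooded to 3 cm above soil at time of treatment received compound via the water, which stayed at that level.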

barnyardgrass [2] = experiment: Test A pre-/postemergence greenhouse test; format: in vivo, Echinochloa crus-galli; conditions: for Plant response rating, Barnyardgrass: 0 to 100 scale where 0 is no effect and 100 is complete control; for Barnyardgrass plant response rating: 0 to 100 scale
Outline: as §1

crabgrass = experiment: Test A pre-/postemergence greenhouse test; format: in vivo, Digitaria sanguinalis; conditions: for Plant response rating, Crabgrass, Large: 0 to 100 scale where 0 is no effect and 100 is complete control; for Crabgrass, Large plant response rating: 0 to 100 scale
Outline: as §1

morningglory = experiment: Test A pre-/postemergence greenhouse test; format: in vivo, Ipomoea spp.; conditions: for Plant response rating, Morningglory: 0 to 100 scale where 0 is no effect and 100 is complete control; for Morningglory plant response rating: 0 to 100 scale
Outline: as §1

rice = experiment: Test C flooded paddy test; format: in vivo, Oryza sativa; conditions: Flood
Outline: as §2

corn = experiment: Test A pre-/postemergence greenhouse test; format: in vivo, Zea mays; conditions: for Plant response rating, Corn: 0 to 100 scale where 0 is no effect and 100 is complete control; for Corn plant response rating: 0 to 100 scale
Outline: as §1

giant foxtail = experiment: Test A pre-/postemergence greenhouse test; format: in vivo, Setaria faberi; conditions: for Plant response rating, Foxtail, Giant: 0 to 100 scale where 0 is no effect and 100 is complete control; for Foxtail, Giant plant response rating: 0 to 100 scale
Outline: as §1

duck salad = experiment: Test C flooded paddy test; format: in vivo, Heteranthera limosa; conditions: Flood
Outline: as §2

umbrella sedge = experiment: Test C flooded paddy test; format: in vivo, Cyperus difformis; conditions: Flood
Outline: as §2

wheat = experiment: Test A pre-/postemergence greenhouse test; format: in vivo, Triticum aestivum; conditions: for Plant response rating, Wheat: 0 to 100 scale where 0 is no effect and 100 is complete control; for Wheat plant response rating: 0 to 100 scale
Outline: as §1

[3] = Postemergence, 500 g ai/ha, 0 is no effect, 100 is complete control
[4] = Preemergence, 125 g ai/ha, 0 no effect, 100 complete control
[5] = Preemergence, 500 g ai/ha, 0 no effect, 100 complete control
[6] = 62 g ai/ha, scale 0 to 100 (0 no effect, 100 complete control)
[7] = 250 g ai/ha, scale 0 to 100, 0 no effect, 100 complete control, 13 to 15 days

SMILES	Plant response rating, Velvetleaf (velvetleaf; Postemergence, 125 g ai/ha)	Velvetleaf plant response rating (velvetleaf; [3])	Velvetleaf plant response rating (velvetleaf; [4])	Plant response rating, Pigweed (redroot pigweed; Postemergence, 125 g ai/ha)	Pigweed plant response rating (redroot pigweed; [3])	Pigweed plant response rating (redroot pigweed; [4])	Plant response rating, Pigweed (redroot pigweed; Preemergence, 500 g ai/ha)	Plant response rating, Barnyardgrass (barnyardgrass [1]; [6])	Plant response rating, Barnyardgrass (barnyardgrass [1]; [7])	Plant response rating, Barnyardgrass (barnyardgrass [2]; Postemergence, 125 g ai/ha)	Barnyardgrass plant response rating (barnyardgrass [2]; [3])	Barnyardgrass plant response rating (barnyardgrass [2]; [4])	Plant response rating, Barnyardgrass (barnyardgrass [2]; Preemergence, 500 g ai/ha)	Plant response rating, Crabgrass, Large (crabgrass; Postemergence, 125 g ai/ha)	Crabgrass, Large plant response rating (crabgrass; [3])	Crabgrass, Large plant response rating (crabgrass; [4])	Plant response rating, Crabgrass, Large (crabgrass; Preemergence, 500 g ai/ha)	Plant response rating, Morningglory (morningglory; Postemergence, 125 g ai/ha)	Morningglory plant response rating (morningglory; [3])	Plant response rating, Morningglory (morningglory; Preemergence, 500 g ai/ha)	other results
Cn1nc(C(F)(F)F)c(C[S+]([O-])c2ccc(Cl)c[n+]2[O-])c1OCC(F)(F)C(F)(F)F (stereo not shown) [Compound 89]	30	80	10	50	100	80	100	0	90	70	90	40	100	50	90	90	90	40	90	90	Velvetleaf plant response rating (velvetleaf; [5]): 100; Plant response rating, Rice (rice; [6]): 0; Plant response rating, Rice (rice; [7]): 60; Plant response rating, Corn (corn; Postemergence, 125 g ai/ha): 50; Corn plant response rating (corn; [3]): 80; Corn plant response rating (corn; [4]): 30; Plant response rating, Corn (corn; Preemergence, 500 g ai/ha): 90; Plant response rating, Foxtail, Giant (giant foxtail; Postemergence, 125 g ai/ha): 80; Foxtail, Giant plant response rating (giant foxtail; [3]): 90; Foxtail, Giant plant response rating (giant foxtail; [4]): 80; Plant response rating, Foxtail, Giant (giant foxtail; Preemergence, 500 g ai/ha): 100; Plant response rating, Ducksalad (duck salad; [6]): 40; Plant response rating, Ducksalad (duck salad; [7]): 100; Plant response rating, Sedge, Umbrella (umbrella sedge; [6]): 0; Plant response rating, Sedge, Umbrella (umbrella sedge; [7]): 100; Plant response rating, Wheat (wheat; Postemergence, 125 g ai/ha): 60; Wheat plant response rating (wheat; [3]): 70; Wheat plant response rating (wheat; [4]): 30; Wheat plant response rating (wheat; [5]): 90
Cn1nc(C(F)(F)F)c(C[S+]([O-])c2cc(Cl)cc[n+]2[O-])c1OCC(F)(F)F (stereo not shown) [Compound 68]	50	60	0	40	80	40	100	0	20	50	80	30	100	50	90	40	100	10	70	80	Plant response rating, Velvetleaf (velvetleaf; Preemergence, 500 g ai/ha): 60; Morningglory plant response rating (morningglory; [4]): 30; Plant response rating, Rice (rice; [6]): 0; Plant response rating, Rice (rice; [7]): 80; Plant response rating, Corn (corn; Postemergence, 125 g ai/ha): 30; Corn plant response rating (corn; [3]): 70; Corn plant response rating (corn; [4]): 0; Plant response rating, Corn (corn; Preemergence, 500 g ai/ha): 70; Plant response rating, Foxtail, Giant (giant foxtail; Postemergence, 125 g ai/ha): 70; Foxtail, Giant plant response rating (giant foxtail; [3]): 90; Foxtail, Giant plant response rating (giant foxtail; [4]): 70; Plant response rating, Foxtail, Giant (giant foxtail; Preemergence, 500 g ai/ha): 100; Plant response rating, Ducksalad (duck salad; [6]): 85; Plant response rating, Ducksalad (duck salad; [7]): 90; Plant response rating, Sedge, Umbrella (umbrella sedge; [6]): 100; Plant response rating, Sedge, Umbrella (umbrella sedge; [7]): 100; Plant response rating, Wheat (wheat; Postemergence, 125 g ai/ha): 50; Wheat plant response rating (wheat; [3]): 60; Wheat plant response rating (wheat; [4]): 30; Plant response rating, Wheat (wheat; Preemergence, 500 g ai/ha): 70
